The numbers were not newly measured in patent US20040024003A1, “Flat medicinal preparation for transmucosal administration of oxycodon or a comparable active ingredient in the oral cavity, for use in pain therapy and in addiction therapy” (priority 1999, published 2004), which cites them from elsewhere.

The conditions of data set [1]: in vivo.

Consider `COc1ccc2c3c1O[C@H]1C(=O)CC[C@@]4(O)[C@@H](C2)N(C)CC[C@]314` [oxycodone], for which the “time taken to enter the blood” value (normal peroral administration) was 15 to 30 min. Moreover, under “peroral administration”, the “bioavailable fraction following peroral administration” value was “two thirds”. In addition, the “average duration of action” value in data set [1] was 4 to 6 h.
